Experimental data as given in patent US7345049B2, “Phenylalanine derivatives” (Ajinomoto Co., Inc., priority 2003, dated 2008).
Where a name gives a salt, the structure may show the parent alone.

molecular target: T1, VCAM-1/α4β1 integrin binding (Homo sapiens, UniProt P05556+P13612); experiment: Assay of antagonistic activity to VCAM-1/α4β1 integrin binding under the existence of blood serum (Jurkat cell adhesion to VCAM-1/Fc); format: cell-based; conditions: Jurkat cells, recombinant human VCAM-1/Fc, 50% human blood serum
T1 construct: Jurkat (ATCC TIB-152), known to express integrin α4β1; endogenous in cells; host or cells: Jurkat (ATCC TIB-152)
Protocol: Assay of Antagonistic Activity to VCAM-1/α4β1 Integrin Binding Under the Existence of Blood Serum
The capacity of a test substance antagonistic to the binding of cell strain of human T cells, Jurkat (ATCC TIB-152), known to express integrin α4β1, to VCAM-1 was determined.
Fifty μl/well of a solution (500 ng/ml) of recombinant human VCAM-1/Fc (R & D systems) diluted with buffer A (0.1 M NaHCO3, pH 9.6) was added to a 96-well microtiter plate (Nunc Maxisorp). After the incubation at 4° C. overnight and washing once with PBS, a buffer (buffer B) obtained by diluting Block Ace (Snow Brand Milk Products Co., Ltd.) with PBS to ½ concentration was added in an amount of 150 μl/well. After the incubation at room temperature for 2 hours, buffer B was removed and the plate was washed with PBS once.
Jurkat cells were washed with Dulbecco modified Eagle medium (SIGMA, hereinafter referred to as “DMEM”) once. Then, the cells were again suspended in a binding buffer (DMEM containing 20 mM HEPES, 0.1% BSA, 2 mM MnCl2 and 50% human blood serum (Sigma)) to become 1×10^6 cells/mL.
Sixty μl of a test substance of various concentrations obtained by the dilution with the binding buffer was added to a round-bottom, 96-well plate (IWAKI). Immediately thereafter, 60 μl of the Jurkat cells (1×10^6 cells/ml) were added thereto and shaken on a plate shaker (IKA-Labortechnik, IKA-SCHUTTLER MTS-4) at 1000 rpm for 10 seconds. In 120 μL of the cell suspension to which the test substance was added, each 100 μL thereof was transferred on the VCAM-1/Fc-coated plate and incubated in dark place at room temperature for 60 minutes. After the shaking on the plate shaker at 1000 rpm for 30 seconds, the solution was immediately removed. Then, the unbound cells were removed by washing them with PBS once. A buffer C (PBS containing 0.82% Triton X-100) was added to the plate in an amount of 70 μL/well. After the shaking on the plate shaker at 1000 rpm for 5 minutes, the bound Jurkat cells were lysed. After centrifuging the cells on a plate centrifuge (SIGMA 4-15C) at room temperature at 2500 rpm for 5 minutes, 50 μL of supernatant thereof was transferred to a 96-well microtiter plate (Nunc Maxisorp). Each 50 μL of Substrate Buffer (Promega, CytoTox 96 Non-Radioactive Cytotoxicity Assay) was added thereto, shaken on a plate shaker at 1000 rpm for 10 seconds and reacted in dark place at room temperature for 30 minutes. Then, each 50 μL of Stop Solution (Promega, CytoTox 96 Non-Radioactive Cytotoxicity Assay) was added thereto and shaken on a plate shaker at 1000 rpm for 10 seconds. […] The absorbance thus obtained detects an activity of lactate dehydrogenase (LDH) dissolved in the supernatant of each well. Namely, the absorbance is proportional to the number of remaining Jurkat cells on the plate via the binding to VCAM-1. The test was conducted in duplicate and the binding rate of each test substance in various concentrations was determined while the absorbance of the test substance-free well was determined to be 100% and the absorbance of the Jurkat-cell-free well was determined to be 0%. The concentration for the 50% inhibition of binding, IC50, was calculated.

T1 sequence (P13612 34-1032): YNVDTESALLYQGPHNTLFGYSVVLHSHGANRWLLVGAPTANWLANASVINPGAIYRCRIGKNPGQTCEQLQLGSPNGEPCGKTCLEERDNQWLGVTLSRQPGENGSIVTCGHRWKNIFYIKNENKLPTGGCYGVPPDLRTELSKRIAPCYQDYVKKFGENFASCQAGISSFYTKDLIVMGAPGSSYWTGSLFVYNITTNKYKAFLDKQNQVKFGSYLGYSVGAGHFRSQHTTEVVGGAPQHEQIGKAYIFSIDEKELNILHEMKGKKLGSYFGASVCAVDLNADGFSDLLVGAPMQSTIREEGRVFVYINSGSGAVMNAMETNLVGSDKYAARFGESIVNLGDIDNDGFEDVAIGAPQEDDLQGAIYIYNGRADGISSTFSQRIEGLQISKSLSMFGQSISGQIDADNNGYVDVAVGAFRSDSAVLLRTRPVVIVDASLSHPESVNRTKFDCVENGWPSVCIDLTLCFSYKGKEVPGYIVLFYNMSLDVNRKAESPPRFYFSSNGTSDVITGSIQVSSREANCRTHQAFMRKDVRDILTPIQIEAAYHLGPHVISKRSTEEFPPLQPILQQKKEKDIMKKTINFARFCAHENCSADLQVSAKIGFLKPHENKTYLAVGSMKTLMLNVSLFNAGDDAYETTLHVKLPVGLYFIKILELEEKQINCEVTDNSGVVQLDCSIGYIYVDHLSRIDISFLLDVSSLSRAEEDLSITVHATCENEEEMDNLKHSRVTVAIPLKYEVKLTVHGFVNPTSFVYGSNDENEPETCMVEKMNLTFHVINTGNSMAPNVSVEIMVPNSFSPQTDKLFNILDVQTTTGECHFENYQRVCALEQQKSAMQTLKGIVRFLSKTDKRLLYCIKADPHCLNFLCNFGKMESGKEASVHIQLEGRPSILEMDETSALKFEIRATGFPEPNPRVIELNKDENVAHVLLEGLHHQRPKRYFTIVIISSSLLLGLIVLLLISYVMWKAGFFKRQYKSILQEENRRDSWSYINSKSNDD
T1 sequence (P05556 21-798): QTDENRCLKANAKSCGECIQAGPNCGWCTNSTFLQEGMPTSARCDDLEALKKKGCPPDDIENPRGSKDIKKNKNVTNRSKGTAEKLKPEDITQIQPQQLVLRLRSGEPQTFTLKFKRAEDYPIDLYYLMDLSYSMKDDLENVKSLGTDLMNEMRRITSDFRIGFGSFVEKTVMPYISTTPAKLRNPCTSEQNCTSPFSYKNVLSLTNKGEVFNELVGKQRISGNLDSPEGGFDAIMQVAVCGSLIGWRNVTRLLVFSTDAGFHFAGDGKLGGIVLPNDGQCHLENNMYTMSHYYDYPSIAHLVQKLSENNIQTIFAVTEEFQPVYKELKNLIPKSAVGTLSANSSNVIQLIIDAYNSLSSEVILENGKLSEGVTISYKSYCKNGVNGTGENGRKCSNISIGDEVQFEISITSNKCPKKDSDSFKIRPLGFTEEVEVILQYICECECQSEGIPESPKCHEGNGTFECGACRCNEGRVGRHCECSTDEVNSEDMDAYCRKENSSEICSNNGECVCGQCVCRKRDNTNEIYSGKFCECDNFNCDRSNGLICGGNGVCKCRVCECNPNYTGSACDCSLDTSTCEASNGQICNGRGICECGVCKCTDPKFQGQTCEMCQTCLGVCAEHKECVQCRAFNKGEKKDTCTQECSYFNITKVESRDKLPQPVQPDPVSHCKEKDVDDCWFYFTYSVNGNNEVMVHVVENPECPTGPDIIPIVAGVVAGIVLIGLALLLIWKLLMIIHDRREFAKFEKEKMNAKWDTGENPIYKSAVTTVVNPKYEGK

Row | SMILES | IC50
1 | Cn1c(=O)n(-c2ccc(CC(NC(=O)c3c(Cl)cccc3Cl)C(=O)O)cc2)c(=O)c2cc(N3CCOCC3)ccc21 (stereo not drawn) [Example 1] | 1.7 nM
2 | CN1CCN(c2ccc3c(c2)c(=O)n(-c2ccc(C[C@H](NC(=O)c4c(Cl)cccc4Cl)C(=O)O)cc2)c(=O)n3C)CC1 [Example 2] | 22.9 nM
3 | CN(C)CCN(C)c1ccc2c(c1)c(=O)n(-c1ccc(C[C@H](NC(=O)c3c(Cl)cccc3Cl)C(=O)O)cc1)c(=O)n2C [Example 4] | 14 nM
4 | CCN(CC)CCN(C)c1ccc2c(c1)c(=O)n(-c1ccc(C[C@H](NC(=O)c3c(Cl)cccc3Cl)C(=O)O)cc1)c(=O)n2C [Example 5] | 10.8 nM
5 | CN(C)C1CCN(c2ccc3c(c2)c(=O)n(-c2ccc(C[C@H](NC(=O)c4c(Cl)cccc4Cl)C(=O)O)cc2)c(=O)n3C)C1 (stereo partly drawn) [Example 6] | 8.9 nM
6 | COCCNc1ccc2c(c1)c(=O)n(-c1ccc(C[C@H](NC(=O)c3c(Cl)cccc3Cl)C(=O)O)cc1)c(=O)n2C [Example 10] | 15.5 nM
7 | CN(C)CCN(C)c1cc2c(cc1F)c(=O)n(-c1ccc(C[C@H](NC(=O)c3c(Cl)cccc3Cl)C(=O)O)cc1)c(=O)n2C [Example 13] | 5.5 nM
8 | CCN(CC)CCN(C)c1cc2c(cc1F)c(=O)n(-c1ccc(C[C@H](NC(=O)c3c(Cl)cccc3Cl)C(=O)O)cc1)c(=O)n2C [Example 14] | 5.8 nM
9 | CN1CCN(C)c2cc3c(cc21)c(=O)n(-c1ccc(C[C@H](NC(=O)c2c(Cl)cccc2Cl)C(=O)O)cc1)c(=O)n3C [Example 17] | 22.9 nM
10 | Cn1ncc2c(=O)n(-c3ccc(C[C@H](NC(=O)c4c(Cl)cccc4Cl)C(=O)O)cc3)c(=O)n(C)c21 [Example 18] | 11.7 nM
11 | CCNc1ccc2c(=O)n(-c3ccc(C[C@H](NC(=O)c4c(Cl)cccc4Cl)C(=O)O)cc3)c(=O)n(C)c2c1 [Example 19] | 23.5 nM
12 | Cn1c(=O)n(-c2ccc(C[C@H](NC(=O)c3c(Cl)cccc3Cl)C(=O)O)cc2)c(=O)c2ccc(CN3CCCC3)cc21 [Example 35, N-(2,6-dichlorobenzoyl)-4-[1-methyl-7-(pyrrolidine-1-ylmethyl)-2,4-quinazoline-dione-3-yl]-L-phenylalanine trifluoroacetate] | 7.9 nM
13 | Cn1c(=O)n(-c2ccc(C[C@H](NC(=O)c3c(Cl)cccc3Cl)C(=O)O)cc2)c(=O)c2cc(S(C)(=O)=O)ccc21 [Example 38, N-(2,6-dichlorobenzoyl)-4-[1-methyl-6-(methylsulfonyl)-2,4-quinazoline-dione-3-yl]-L-phenylalanine] | 12.4 nM
14 | Cn1c(=O)n(-c2ccc(C[C@H](NC(=O)c3c(Cl)cccc3Cl)C(=O)O)cc2)c(=O)c2ccc(N3CCOCC3)cc21 [Example 39, N-(2,6-dichlorobenzoyl)-4-[1-methyl-7-(morpholine-4-yl)-2,4-quinazoline-dione-3-yl]-L-phenylalanine trifluoroacetate] | 6.5 nM
15 | Cn1c(=O)n(-c2ccc(C[C@H](NC(=O)c3c(Cl)cccc3Cl)C(=O)O)cc2)c(=O)c2ncccc21 [Example 47, N-(2,6-dichlorobenzoyl)-4-[1-methyl-2,4-dioxo-1,2,3,4-tetrahydro-3-(2H)pyrido[3,2-d]pyrimidinyl]-L-phenylalanine] | 15.7 nM
16 | Cn1c(=O)n(-c2ccc(C[C@H](NC(=O)c3c(Cl)cccc3Cl)C(=O)O)cc2)c(=O)c2cc(C(N)=O)ccc21 [Example 50] | 15.4 nM
17 | Cn1c(=O)n(-c2ccc(C[C@H](NC(=O)c3c(Cl)cccc3Cl)C(=O)O)cc2)c(=O)c2cc(CN3CCOCC3)ccc21 [Example 53] | 23.3 nM
18 | CCN(CC)Cc1ccc2c(c1)c(=O)n(-c1ccc(C[C@H](NC(=O)c3c(Cl)cccc3Cl)C(=O)O)cc1)c(=O)n2C [Example 55] | 14.2 nM
19 | Cn1c(=O)n(-c2ccc(C[C@H](NC(=O)c3c(Cl)cccc3Cl)C(=O)O)cc2)c(=O)c2cc(CN3CCCC3)ccc21 [Example 56] | 13.1 nM
20 | Cn1c(=O)n(-c2ccc(C[C@H](NC(=O)c3c(Cl)cccc3Cl)C(=O)O)cc2)c(=O)c2cc(CN3CCCCC3)ccc21 [Example 57] | 16.6 nM

Row | SMILES | IC50
21 | Cn1c(=O)n(-c2ccc(C[C@H](NC(=O)c3c(Cl)cccc3Cl)C(=O)O)cc2)c(=O)c2cc(CO)ccc21 [Example 60] | 25.5 nM
22 | COCc1ccc2c(=O)n(-c3ccc(C[C@H](NC(=O)c4c(Cl)cccc4Cl)C(=O)O)cc3)c(=O)n(C)c2c1 [Example 63] | 10.8 nM
23 | Cn1c(=O)n(-c2ccc(C[C@H](NC(=O)c3c(Cl)cccc3Cl)C(=O)O)cc2)c(=O)c2cnccc21 [Example 64] | 12.3 nM
24 | CCCNCc1ccc2c(c1)c(=O)n(-c1ccc(C[C@H](NC(=O)c3c(Cl)cccc3Cl)C(=O)O)cc1)c(=O)n2C [Example 98] | 18.1 nM
25 | CCN(C)c1ccc2c(c1)c(=O)n(-c1ccc(C[C@H](NC(=O)c3c(Cl)cccc3Cl)C(=O)O)cc1)c(=O)n2C [Example 139, N-(2,6-dichlorobenzoyl)-4-[6-ethylmethylamino-1-methyl-2,4-quinazoline-dione-3-yl]-L-phenylalanine] | 8.4 nM
26 | CN(C)CCOc1ccc2c(c1)c(=O)n(-c1ccc(C[C@H](NC(=O)c3c(Cl)cccc3Cl)C(=O)O)cc1)c(=O)n2C [Example 142, N-(2,6-dichlorobenzoyl)-4-[6-(2-dimethylaminoethoxy)-1-methyl-2,4-quinazoline-dione-3-yl]-L-phenylalanine] | 14.7 nM
27 | CCNCc1ccc2c(=O)n(-c3ccc(C[C@H](NC(=O)c4c(Cl)cccc4Cl)C(=O)O)cc3)c(=O)n(C)c2c1 [Example 143, N-(2,6-dichlorobenzoyl)-4-[7-ethylaminomethyl-1-methyl-2,4-quinazoline-dione-3-yl]-L-phenylalanine] | 7 nM
28 | CNCc1ccc2c(=O)n(-c3ccc(C[C@H](NC(=O)c4c(Cl)cccc4Cl)C(=O)O)cc3)c(=O)n(C)c2c1 [Example 144, N-(2,6-dichlorobenzoyl)-4-[7-methylaminomethyl-1-methyl-2,4-quinazoline-dione-3-yl]-L-phenylalanine] | 4.9 nM
29 | CCCNCc1ccc2c(=O)n(-c3ccc(C[C@H](NC(=O)c4c(Cl)cccc4Cl)C(=O)O)cc3)c(=O)n(C)c2c1 [Example 145, N-(2,6-dichlorobenzoyl)-4-[1-methyl-7-propylaminomethyl-2,4-quinazoline-dione-3-yl]-L-phenylalanine] | 3.8 nM
30 | CCN(CC)Cc1ccc2c(=O)n(-c3ccc(C[C@H](NC(=O)c4c(Cl)cccc4Cl)C(=O)O)cc3)c(=O)n(C)c2c1 [Example 146, N-(2,6-dichlorobenzoyl)-4-[1-methyl-7-diethylaminomethyl-2,4-quinazoline-dione-3-yl]-L-phenylalanine] | 7.9 nM
31 | Cc1nccn1-c1cc2c(cc1F)c(=O)n(-c1ccc(C[C@H](NC(=O)c3c(Cl)cccc3Cl)C(=O)O)cc1)c(=O)n2C [Example 160] | 9.4 nM
32 | CCc1nccn1-c1cc2c(cc1F)c(=O)n(-c1ccc(C[C@H](NC(=O)c3c(Cl)cccc3Cl)C(=O)O)cc1)c(=O)n2C [Example 161] | 16.5 nM
33 | Cn1c(=O)n(-c2ccc(C[C@H](NC(=O)c3c(Cl)cccc3Cl)C(=O)O)cc2)c(=O)c2cc(CN)ccc21 [Example 191] | 12.9 nM
34 | Cn1c(=O)n(-c2ccc(C[C@H](NC(=O)c3c(Cl)cccc3Cl)C(=O)O)cc2)c(=O)c2cc(CNC3CC3)ccc21 [Example 192] | 17.9 nM
35 | CC(C)NCc1ccc2c(c1)c(=O)n(-c1ccc(C[C@H](NC(=O)c3c(Cl)cccc3Cl)C(=O)O)cc1)c(=O)n2C [Example 194] | 6.9 nM
36 | CC(C)CCNCc1ccc2c(c1)c(=O)n(-c1ccc(C[C@H](NC(=O)c3c(Cl)cccc3Cl)C(=O)O)cc1)c(=O)n2C [Example 196] | 5.3 nM
37 | Cn1c(=O)n(-c2ccc(C[C@H](NC(=O)c3c(Cl)cccc3Cl)C(=O)O)cc2)c(=O)c2cc(CNCC3CC3)ccc21 [Example 197] | 6.3 nM
38 | CCC(C)NCc1ccc2c(c1)c(=O)n(-c1ccc(C[C@H](NC(=O)c3c(Cl)cccc3Cl)C(=O)O)cc1)c(=O)n2C (stereo partly drawn) [Example 198] | 5.7 nM
39 | CC(C)N(C)Cc1ccc2c(c1)c(=O)n(-c1ccc(C[C@H](NC(=O)c3c(Cl)cccc3Cl)C(=O)O)cc1)c(=O)n2C [Example 199] | 18 nM
